In patent US9695155B2, “Herbicidal substituted pyrimidinyloxy benzene compounds” (E. I. DU PONT DE NEMOURS AND COMPANY, priority 2013, dated 2017):

Tests used:
large (Lg) crabgrass [1] = assay: Test C preemergence; format: in vivo, Digitaria sanguinalis; settings: Digitaria sanguinalis, pre-emergence; for pest or weed control at 62 g/ha: 62 g ai/ha; for pest or weed control at 62 g/ha / pest or weed control at 125 g/ha / pest or weed control at 250 g/ha: preemergence, scale 0 (no effect) to 100 (complete control), read-out: Crabgrass, Large plant response rating; for pest or weed control at 125 g/ha: 125 g ai/ha; for pest or weed control at 250 g/ha: 250 g ai/ha; for pest or weed control at 31 g/ha: Preemergence, 31 g ai/ha, scale 0 to 100, 0 no effect, 100 complete control, read-out: Plant response rating, Crabgrass, Large
Summary of the method: (§1)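 Whole-plant greenhouse test with surfactant-containing solvent formulation, applied preemergence to sown loam–sand pots or postemergence to 2–18 cm plants. Scored by eye 13 to 15 days on, 0–100 scale.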

wheat, winter = assay: Test C postemergence; format: in vivo, Triticum aestivum; settings: Triticum aestivum, post-emergence; for plant injury at 125 g/ha: 125 g ai/ha; for plant injury at 125 g/ha / plant injury at 250 g/ha: postemergence, read-out: Plant response rating (0 to 100), Wheat; for plant injury at 250 g/ha: 250 g ai/ha; for plant injury at 31 g/ha / plant injury at 62 g/ha: Postemergence, scale 0 to 100 (0 no effect, 100 complete control), read-out: Plant response rating, Wheat; for plant injury at 31 g/ha: 31 g ai/ha, 13 to 15 days; for plant injury at 62 g/ha: 62 g ai/ha
Summary of the method: as §1

ragweed = assay: Test C postemergence; format: in vivo, Ambrosia elatior; settings: Ambrosia artemisiifolia, post-emergence; for pest or weed control at 125 g/ha: 125 g ai/ha; for pest or weed control at 125 g/ha / pest or weed control at 250 g/ha: postemergence, read-out: Plant response rating (0 to 100), Ragweed; for pest or weed control at 250 g/ha: 250 g ai/ha; for pest or weed control at 31 g/ha / pest or weed control at 62 g/ha: Postemergence, scale 0 to 100 (0 no effect, 100 complete control), read-out: Plant response rating, Ragweed; for pest or weed control at 31 g/ha: 31 g ai/ha, 13 to 15 days; for pest or weed control at 62 g/ha: 62 g ai/ha
Summary of the method: as §1

johnsongrass = assay: Test C preemergence; format: in vivo, Sorghum halepense; settings: Sorghum halepense, pre-emergence; for pest or weed control at 62 g/ha: 62 g ai/ha; for pest or weed control at 62 g/ha / pest or weed control at 125 g/ha / pest or weed control at 250 g/ha: preemergence, scale 0 (no effect) to 100 (complete control), read-out: Johnsongrass plant response rating; for pest or weed control at 125 g/ha: 125 g ai/ha; for pest or weed control at 250 g/ha: 250 g ai/ha; for pest or weed control at 31 g/ha: Preemergence, 31 g ai/ha, scale 0 to 100, 0 no effect, 100 complete control, read-out: Plant response rating, Johnsongrass
Summary of the method: as §1

kochia = assay: Test C postemergence; format: in vivo, Kochia scoparia; settings: Bassia scoparia, post-emergence; for pest or weed control at 125 g/ha: 125 g ai/ha; for pest or weed control at 125 g/ha / pest or weed control at 250 g/ha: postemergence, read-out: Plant response rating (0 to 100), Kochia; for pest or weed control at 250 g/ha: 250 g ai/ha; for pest or weed control at 31 g/ha / pest or weed control at 62 g/ha: Postemergence, scale 0 to 100 (0 no effect, 100 complete control), read-out: Plant response rating, Kochia; for pest or weed control at 31 g/ha: 31 g ai/ha, 13 to 15 days; for pest or weed control at 62 g/ha: 62 g ai/ha
Summary of the method: as §1

rice = assay: Test B flooded paddy test; format: in vivo, Oryza sativa; settings: Oryza sativa; Flood, 250 g ai/ha; 0 to 100 scale where 0 is no effect and 100 is complete control; read-out: Plant response rating, Rice
Summary of the method: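 Flooded to 3 cm at the 2-leaf stage, pots received compound through the paddy water and were kept at that depth under greenhouse conditions. After 13–15 days, effect was rated by eye relative to controls, 0 = none and 100 = complete control.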

wild oat = assay: Test C postemergence; format: in vivo, Avena fatua; settings: Avena fatua, post-emergence; for pest or weed control at 125 g/ha: 125 g ai/ha; for pest or weed control at 125 g/ha / pest or weed control at 250 g/ha: postemergence, read-out: Plant response rating (0 to 100), Oat, Wild; for pest or weed control at 250 g/ha: 250 g ai/ha; for pest or weed control at 31 g/ha / pest or weed control at 62 g/ha: Postemergence, scale 0 to 100 (0 no effect, 100 complete control), read-out: Plant response rating, Oat, Wild; for pest or weed control at 31 g/ha: 31 g ai/ha, 13 to 15 days; for pest or weed control at 62 g/ha: 62 g ai/ha
Summary of the method: as §1

large (Lg) crabgrass [2] = assay: Test A preemergence; format: in vivo, Digitaria sanguinalis; settings: Digitaria sanguinalis, pre-emergence, 240 h; for pest or weed control at 125 g/ha: 125 g ai/ha, 0 to 100 scale where 0 is no effect and 100 is complete control, read-out: Plant response rating, Crabgrass, Large; for pest or weed control at 500 g/ha: 500 g ai/ha, 0 to 100 scale, 0 no effect, 100 complete control, approx. 10 days, read-out: Crabgrass, Large plant response rating
Summary of the method: (§2)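 Greenhouse pot test, loam/sand soil. Formulation: non-phytotoxic solvent mix plus surfactant. Pre: directed spray onto soil after sowing. Post: plants at 1–2 leaf, 2–10 cm. Rated visually vs untreated controls at ~10 d, 0 (no effect) to 100 (complete control).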

corn = assay: Test A preemergence; format: in vivo, Zea mays; settings: Zea mays, pre-emergence, 240 h; for Corn plant response rating (crop injury, 0 = no effect, 100 = complete kill) at 125 g/ha: 125 g ai/ha, 0 to 100 scale where 0 is no effect and 100 is complete control; for plant injury at 500 g/ha: 500 g ai/ha, 0 to 100 scale, 0 no effect, 100 complete control, approx. 10 days, read-out: Corn plant response rating
Summary of the method: as §2

lambsquarters = assay: Test C preemergence; format: in vivo, Chenopodium album; settings: Chenopodium album, pre-emergence; for pest or weed control at 62 g/ha: 62 g ai/ha; for pest or weed control at 62 g/ha / pest or weed control at 125 g/ha / pest or weed control at 250 g/ha: preemergence, scale 0 (no effect) to 100 (complete control), read-out: Lambsquarters plant response rating; for pest or weed control at 125 g/ha: 125 g ai/ha; for pest or weed control at 250 g/ha: 250 g ai/ha; for pest or weed control at 31 g/ha: Preemergence, 31 g ai/ha, scale 0 to 100, 0 no effect, 100 complete control, read-out: Plant response rating, Lambsquarters
Summary of the method: as §1

`N#Cc1cccc(Oc2ncc(Cl)cn2)c1-n1cc(C(F)(F)F)cn1` [Compound 58, 3-[(5-chloro-2-pyrimidinyl)oxy]-2-[4-(trifluoromethyl)-1H-pyrazol-1-yl]benzonitrile] was tested, and the pest or weed control at 62 g/ha (large (Lg) crabgrass [1]) was 100%, the pest or weed control at 125 g/ha (large (Lg) crabgrass [1]) was 100% and the pest or weed control at 250 g/ha (large (Lg) crabgrass [1]) was 100%. The pest or weed control at 31 g/ha (large (Lg) crabgrass [1]) was 100%, the plant injury at 125 g/ha (wheat, winter) was 25% and the plant injury at 250 g/ha (wheat, winter) was 30%. For the same compound, the plant injury at 31 g/ha (wheat, winter) was 10%, the plant injury at 62 g/ha (wheat, winter) was 15% and the pest or weed control at 125 g/ha (ragweed) was 85%. It also gave a pest or weed control at 250 g/ha (ragweed) of 90%, a pest or weed control at 31 g/ha (ragweed) of 40% and a pest or weed control at 62 g/ha (ragweed) of 45%. For the same compound, the pest or weed control at 62 g/ha (johnsongrass) was 100%, the pest or weed control at 125 g/ha (johnsongrass) was 100% and the pest or weed control at 250 g/ha (johnsongrass) was 100%. The pest or weed control at 31 g/ha (johnsongrass) was 85%, the pest or weed control at 125 g/ha (kochia) was 100% and the pest or weed control at 250 g/ha (kochia) was 100%. For the same compound, the pest or weed control at 31 g/ha (kochia) was 95%, the pest or weed control at 62 g/ha (kochia) was 95% and the plant injury at 250 g/ha (rice) was 50%. For the same compound, the pest or weed control at 125 g/ha (wild oat) was 45%, the pest or weed control at 250 g/ha (wild oat) was 55% and the pest or weed control at 31 g/ha (wild oat) was 35%. For the same compound, the pest or weed control at 62 g/ha (wild oat) was 40%, the pest or weed control at 125 g/ha (large (Lg) crabgrass [2]) was 100% and the pest or weed control at 500 g/ha (large (Lg) crabgrass [2]) was 100%. It also gave a Corn plant response rating (crop injury, 0 = no effect, 100 = complete kill) at 125 g/ha (corn) of 40%, a plant injury at 500 g/ha (corn) of 70% and a pest or weed control at 62 g/ha (lambsquarters) of 100%. It also gave a pest or weed control at 125 g/ha (lambsquarters) of 100%, a pest or weed control at 250 g/ha (lambsquarters) of 100% and a pest or weed control at 31 g/ha (lambsquarters) of 100%.

In the case of `N#Cc1cccc(Oc2ncc(Br)cn2)c1-n1cc(C(F)(F)F)cn1` [Compound 59, 3-[(5-bromo-2-pyrimidinyl)oxy]-2-[4-(trifluoromethyl)-1H-pyrazol-1-yl]benzonitrile], the pest or weed control at 62 g/ha (large (Lg) crabgrass [1]) was 100%, the pest or weed control at 125 g/ha (large (Lg) crabgrass [1]) was 100% and the pest or weed control at 250 g/ha (large (Lg) crabgrass [1]) was 100%. It also gave a pest or weed control at 31 g/ha (large (Lg) crabgrass [1]) of 100%, a plant injury at 125 g/ha (wheat, winter) of 20% and a plant injury at 250 g/ha (wheat, winter) of 20%. For the same compound, the plant injury at 31 g/ha (wheat, winter) was 5%, the plant injury at 62 g/ha (wheat, winter) was 5% and the pest or weed control at 125 g/ha (ragweed) was 25%. For the same compound, the pest or weed control at 250 g/ha (ragweed) was 55%, the pest or weed control at 31 g/ha (ragweed) was 10% and the pest or weed control at 62 g/ha (ragweed) was 25%. The pest or weed control at 62 g/ha (johnsongrass) was 85%, the pest or weed control at 125 g/ha (johnsongrass) was 98% and the pest or weed control at 250 g/ha (johnsongrass) was 100%. It also gave a pest or weed control at 31 g/ha (johnsongrass) of 60%, a pest or weed control at 125 g/ha (kochia) of 100% and a pest or weed control at 250 g/ha (kochia) of 100%. For the same compound, the pest or weed control at 31 g/ha (kochia) was 95%, the pest or weed control at 62 g/ha (kochia) was 100% and the plant injury at 250 g/ha (rice) was 20%. For the same compound, the pest or weed control at 125 g/ha (wild oat) was 40%, the pest or weed control at 250 g/ha (wild oat) was 40% and the pest or weed control at 31 g/ha (wild oat) was 25%. It also gave a pest or weed control at 62 g/ha (wild oat) of 25%, a pest or weed control at 125 g/ha (large (Lg) crabgrass [2]) of 100% and a pest or weed control at 500 g/ha (large (Lg) crabgrass [2]) of 100%. The Corn plant response rating (crop injury, 0 = no effect, 100 = complete kill) at 125 g/ha (corn) was 20%, the plant injury at 500 g/ha (corn) was 30% and the pest or weed control at 62 g/ha (lambsquarters) was 100%. The pest or weed control at 125 g/ha (lambsquarters) was 100%, the pest or weed control at 250 g/ha (lambsquarters) was 100% and the pest or weed control at 31 g/ha (lambsquarters) was 100%.
